Source: patent US4031243A, “2-(4-Isobutyl phenyl)butyric acid, salts thereof, and pharmaceutical compositions containing the same” (priority 1975, dated 1977)

Assays:
gastric lining = assay: General statements on toxicity, gastric tolerance and activity; details: capsule, 100 to 300 milligrams, with talcum and magnesium stearate
[1] = Dissolution of capsule in the stomach (statement); assay type: physicochemical; details: 100 to 300 milligrams, with talcum and magnesium stearate
[2] = Analgesic activity: Tail pinch test in the mouse; assay type: in vivo; details: for ED50: Mus musculus; for Animals Not protected, TOTALS / Animals Protected, TOTALS: all doses (60-240 mg/kg)
Description: Analgesic activity: Tail pinch test in the mouse Described by F. Haffner in Deutsch. med. […] ED50 in this test represents the effective dose in milligrams per kilogram of body weight that is required to increase the reaction time by a factor of at least 3 over the reaction time of the same animal before the test substance had been administered.

[3] = Analgesic activity: Hot-plate test; assay type: in vivo; details: for Reaction time Half ± SEM: control 103.3 ± 7.9
mucosa = assay: Ulcerogenic assay; assay type: in vivo, rat; details: 20 rats, scale 0 no ulcers to 3 ulceration with craters
Description: (§1) Described by S. Wong, J. F. Gardocki and T. P. Pruss in J. Pharm. Exper.
(§2) UD50 represents the dose in milligrams per kilogram of body weight that is based upon a point scale as follows:
(§3) 3 -- ulceration with craters
(§4) U.S. 50 Half ulcerogenic dose -- dose which produces 50% of the
(§5) maximum possible score points in one group of rats.

[4] = system: edema produced by administration of carageenin; assay: animal or person; assay type: in vivo, rat; design: Increment of Edema ± SEM: unit not given here; details: for ED50: Rattus norvegicus, lineal regression; for "+" animals, printed in place of increment of edema: rat, in vivo
Description: Antiinflammatory activity: Acute rat paw edema test Described by C. H. Winter, E. A. Risley and G. W. Nuss in a paper entitled "[…]-induced edema in hind paw of the rat as an assay for antiinflammatory drugs", published in Proc. Soc. Exp. Biol. Med., volume 111, page 544 (1962). ED50 in this test represents the effective dose in milligrams per kilogram of body weight that is required to inhibit edema produced by administration of carageenin to the rat.

granulation tissue = assay: Antiinflammatory activity: Formation of granulation tissue in the rat; assay type: in vivo; details: oral; for ED50: Rattus norvegicus, 50% inhibition of granulation tissue, lineal regression; for Weight of granulated tissue ± SEM: control 198 ± 3.63, in mg (unit assumed)
Description: Antiinflammatory activity: Formation of granulation tissue in the rat
Described by N. Pisanti, G. Volterra and A. Meli, in a paper entitled "Pharmacological data on a new antiinflammatory agent", published in Il Farmaco(Ed. Scientifica) vol. 38, page 51 (1973).
ED50 in this test represents the effective dose in milligrams per kilogram of body weight that is required to inhibit by an increment of 50% the formulation of granulation tissue in the rat.

Ulcerogenic assay = assay type: in vivo, rat; details: rat, in vivo; dose which produces 50% of the maximum possible score points in one group of rats; lineal regression; read-out: UD50 (the source's name)
Description: as §1, §2, §3, §4, §5

[5] = 144 h, Table 2, oral, administration 6 days
[6] = Table 1, oral, 120 mg/kg, control 14.80 ± 0.94
[7] = Table 1, oral, 180 mg/kg, control 14.80 ± 0.94
[8] = Table 1, oral, 240 mg/kg, control 14.80 ± 0.94
[9] = Table 2, oral, 120 mg/kg, administration 6 days
[10] = Table 2, oral, 120 mg/kg, administration 6 days, control 15.35 ± 0.31
[11] = Table 2, oral, 180 mg/kg, administration 6 days
[12] = Table 2, oral, 180 mg/kg, administration 6 days, control 15.35 ± 0.31
[13] = Table 2, oral, 240 mg/kg, administration 6 days
[14] = Table 2, oral, 240 mg/kg, administration 6 days, control 15.35 ± 0.31
[15] = Table 3, I.P., 120 mg/kg, control 12.50 ± 1.66

SMILES: CCC(C(=O)[O-])c1ccc(CC(C)C)cc1.[Na+] (centres unmarked)
- gastric upset or irritation (gastric lining): without producing a gastric upset or irritation
- dissolution in the stomach [1]: dissolves well in the stomach

SMILES: CCC(C(=O)O)c1ccc(CC(C)C)cc1 (centres unmarked) [2-(4-Isobutylphenyl)butyric acid, 2-(4-isobutylphenyl) butyric acid]
- ED50 ([2]; oral, reaction time increased by factor of at least 3, lineal regression, read-out: ED50): 118 mg/kg
- % Protection ([2]; oral, 60 mg/kg): 15%
- Animals Not protected ([2]; oral, 60 mg/kg): 17
- Animals Protected ([2]; oral, 60 mg/kg): 3
- % Protection ([2]; oral, 120 mg/kg): 50%
- Animals Not protected ([2]; oral, 120 mg/kg): 10
- Animals Protected ([2]; oral, 120 mg/kg): 10
- % Protection ([2]; oral, 180 mg/kg): 70%
- Animals Not protected ([2]; oral, 180 mg/kg): 6
- Animals Protected ([2]; oral, 180 mg/kg): 14
- % Protection ([2]; oral, 240 mg/kg): 90%
- Animals Not protected ([2]; oral, 240 mg/kg): 2
- Animals Protected ([2]; oral, 240 mg/kg): 18
- Animals Not protected, TOTALS ([2]; oral): 35
- Animals Protected, TOTALS ([2]; oral): 45
- % Increase of Reaction time ([3]; oral, 60 mg/kg): 7.0%
- Reaction time Half ± SEM ([3]; oral, 60 mg/kg): 110.6 ± 7.0 s
- % Increase of Reaction time ([3]; oral, 120 mg/kg): 35.0%
- Reaction time Half ± SEM ([3]; oral, 120 mg/kg): 139.5 ± 10.7 s
- % Increase of Reaction time ([3]; oral, 180 mg/kg): 37.0%
- Reaction time Half ± SEM ([3]; oral, 180 mg/kg): 142.3 ± 7.6 s
- % Increase of Reaction time ([3]; oral, 240 mg/kg): 78.4%
- Reaction time Half ± SEM ([3]; oral, 240 mg/kg): 184.3 ± 13.1 s
- ED50 ([3]; oral, increase by 50% of reaction time, lineal regression, read-out: ED50): 162 mg/kg
- Point score (mucosa; 60 mg/kg/day): 2
- Point score (mucosa; 120 mg/kg/day): 7
- Point score (mucosa; 240 mg/kg/day): 14
- ED50 [4, 5]: 204 mg/kg
- ED50 ([4]; ip, Table 3, I.P.): 133 mg/kg
- ED50 ([4]; Table 1, oral): 116 mg/kg
- % Inhibition ([4]; Table 1, oral, 120 mg/kg): 51.01%
- Increment of Edema ± SEM [4, 6]: 7.25 ± 1.00
- % Inhibition ([4]; Table 1, oral, 180 mg/kg): 58.10%
- Increment of Edema ± SEM [4, 7]: 6.20 ± 0.84
- % Inhibition ([4]; Table 1, oral, 240 mg/kg): 66.21%
- Increment of Edema ± SEM [4, 8]: 5.00 ± 0.97
- % Inhibition [4, 9]: 24.03%
- Increment of Edema ± SEM [4, 10]: 11.66 ± 0.67
- % Inhibition [4, 11]: 40.97%
- Increment of Edema ± SEM [4, 12]: 9.06 ± 0.39
- % Inhibition [4, 13]: 60.06%
- Increment of Edema ± SEM [4, 14]: 6.13 ± 0.35
- % Inhibition ([4]; Table 3, I.P., 120 mg/kg): 49.36%
- Increment of Edema ± SEM [4, 15]: 6.33 ± 0.88
- % Inhibition ([4]; Table 3, I.P., 240 mg/kg): 64.00%
- Increment of Edema ± SEM ([4]; Table 3, I.P., 240 mg/kg, control 12.50 ± 1.66): 4.50 ± 1.05
- % Inhibition ([4]; Table 3, I.P., 360 mg/kg): 92.96%
- Increment of Edema ± SEM ([4]; Table 3, I.P., 360 mg/kg, control 12.50 ± 1.66): 0.88 ± 0.26
- ED50 (granulation tissue): 252 mg/kg
- % Inhibition (granulation tissue; 120 mg/kg): 11.11%
- Weight of granulated tissue ± SEM (granulation tissue; 120 mg/kg): 176 ± 13.09
- % Inhibition (granulation tissue; 180 mg/kg): 34.34%
- Weight of granulated tissue ± SEM (granulation tissue; 180 mg/kg): 130 ± 8.54
- % Inhibition (granulation tissue; 240 mg/kg): 46.46%
- Weight of granulated tissue ± SEM (granulation tissue; 240 mg/kg): 106 ± 9.97

SMILES: CC(=O)Oc1ccccc1C(=O)O [Aspirin, reference compound]
- ED50 ([2]; po): 115 mg/kg
- % Protection ([2]; oral, 60 mg/kg): 13.3%
- Animals Not protected ([2]; oral, 60 mg/kg): 13
- Animals Protected ([2]; oral, 60 mg/kg): 2
- % Protection ([2]; oral, 120 mg/kg): 53.3%
- Animals Not protected ([2]; oral, 120 mg/kg): 7
- Animals Protected ([2]; oral, 120 mg/kg): 8
- % Protection ([2]; oral, 180 mg/kg): 73.3%
- Animals Not protected ([2]; oral, 180 mg/kg): 4
- Animals Protected ([2]; oral, 180 mg/kg): 11
- % Protection ([2]; oral, 240 mg/kg): 93.3%
- Animals Not protected ([2]; oral, 240 mg/kg): 1
- Animals Protected ([2]; oral, 240 mg/kg): 14
- Animals Not protected, TOTALS ([2]; oral): 25
- Animals Protected, TOTALS ([2]; oral): 35
- % Increase of Reaction time ([3]; oral, 120 mg/kg): 22.7%
- Reaction time Half ± SEM ([3]; oral, 120 mg/kg): 126.8 ± 13.7 s
- % Increase of Reaction time ([3]; oral, 180 mg/kg): 57.4%
- Reaction time Half ± SEM ([3]; oral, 180 mg/kg): 162.6 ± 8.0 s
- % Increase of Reaction time ([3]; oral, 240 mg/kg): 69.5%
- Reaction time Half ± SEM ([3]; oral, 240 mg/kg): 175.1 ± 5.9 s
- ED50 ([3]; po): 173 mg/kg

SMILES: CCCCC1C(=O)N(c2ccccc2)N(c2ccccc2)C1=O [Phenylbutazone, reference compound]
- TD50 (Ulcerogenic assay): 226 mg/kg
- Point score (mucosa; 60 mg/kg/day): 8
- Point score (mucosa; 120 mg/kg/day): 17
- Point score (mucosa; 240 mg/kg/day): 32
- ED50 [4, 5]: 177 mg/kg
- ED50 ([4]; Table 1, oral): 77.1 mg/kg
- % Inhibition ([4]; Table 1, oral, 120 mg/kg): 56.08%
- Increment of Edema ± SEM [4, 6]: 6.50 ± 1.02
- % Inhibition ([4]; Table 1, oral, 180 mg/kg): 64.86%
- Increment of Edema ± SEM [4, 7]: 5.20 ± 0.41
- % Inhibition ([4]; Table 1, oral, 240 mg/kg): 70.94%
- Increment of Edema ± SEM [4, 8]: 4.30 ± 0.89
- % Inhibition [4, 9]: 34.85%
- Increment of Edema ± SEM [4, 10]: 10.00 ± 0.73
- % Inhibition [4, 11]: 42.28%
- Increment of Edema ± SEM [4, 12]: 8.86 ± 0.36
- % Inhibition [4, 13]: 69.64%
- Increment of Edema ± SEM [4, 14]: 4.66 ± 0.54
- % Inhibition ([4]; Table 3, I.P., 120 mg/kg): 45.36%
- Increment of Edema ± SEM [4, 15]: 6.83 ± 0.94
- "+" animals, printed in place of increment of edema ([4]; ip, 240 mg/kg): + four animals
- "+" animals, printed in place of increment of edema ([4]; ip, 360 mg/kg): + five animals
- ED50 (granulation tissue): 264 mg/kg
- % Inhibition (granulation tissue; 120 mg/kg): 15.65%
- Weight of granulated tissue ± SEM (granulation tissue; 120 mg/kg): 167 ± 8.25
- % Inhibition (granulation tissue; 180 mg/kg): 35.35%
- % Inhibition (granulation tissue; 240 mg/kg): 44.94%
- Weight of granulated tissue ± SEM (granulation tissue; 240 mg/kg): 109 ± 8.77
